# Source: ChEMBL document CHEMBL3879915, “Methods of inhibiting PRMT5” (2014)
# Key:
# [1] = target: PRMT5/MEP50 complex (Homo sapiens, UniProt O14744); test: Inhibition of recombinant human fetal brain FLAG-tagged PRMT5/full length human testis 6His-tagged MEP50 expressed in baculovirus infected insect Sf9 cells using human histone H4 (1 to 15 residues) as substrate preincubated for 30 mins followed by [3H]-SAM addition
# [2] = target: Protein arginine N-methyltransferase 5 (Homo sapiens, UniProt O14744); test: Inhibition of PRMT5 in human Z138 cells assessed as decrease in di-methyl arginine levels after 96 hrs by Western blot method; type: cell-based
# [3] = Antiproliferative activity against human Z138 cells assessed as inhibition of cell viability after 5 days by Cell-Titer Glo assay; type: functional, cell-based; conditions: Z-138, 120 h
# Protein arginine N-methyltransferase 5, sequence (O14744 whole entry): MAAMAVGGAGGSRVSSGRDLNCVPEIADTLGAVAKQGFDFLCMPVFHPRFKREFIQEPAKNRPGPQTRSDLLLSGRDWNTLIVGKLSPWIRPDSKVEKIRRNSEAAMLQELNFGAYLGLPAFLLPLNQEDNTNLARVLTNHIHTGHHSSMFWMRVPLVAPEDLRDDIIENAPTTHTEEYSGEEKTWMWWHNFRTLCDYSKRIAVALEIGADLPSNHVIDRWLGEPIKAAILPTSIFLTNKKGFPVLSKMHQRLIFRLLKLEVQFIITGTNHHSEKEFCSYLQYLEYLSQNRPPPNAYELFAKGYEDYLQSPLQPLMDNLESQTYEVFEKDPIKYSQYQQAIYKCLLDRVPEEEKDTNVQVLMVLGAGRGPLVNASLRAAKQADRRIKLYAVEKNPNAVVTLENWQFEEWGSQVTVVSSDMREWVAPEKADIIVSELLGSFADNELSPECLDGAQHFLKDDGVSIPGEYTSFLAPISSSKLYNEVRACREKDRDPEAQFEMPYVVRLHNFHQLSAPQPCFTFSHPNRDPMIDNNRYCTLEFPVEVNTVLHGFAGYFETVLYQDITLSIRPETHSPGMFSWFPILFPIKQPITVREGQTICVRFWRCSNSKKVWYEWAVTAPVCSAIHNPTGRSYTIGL
# PRMT5/MEP50 complex, sequence (O14744 whole entry, the tested form may be a part): as the sequence (O14744 whole entry) above
# PRMT5/MEP50 complex, sequence (Q9BQA1 whole entry, further chain, the tested form may be a part): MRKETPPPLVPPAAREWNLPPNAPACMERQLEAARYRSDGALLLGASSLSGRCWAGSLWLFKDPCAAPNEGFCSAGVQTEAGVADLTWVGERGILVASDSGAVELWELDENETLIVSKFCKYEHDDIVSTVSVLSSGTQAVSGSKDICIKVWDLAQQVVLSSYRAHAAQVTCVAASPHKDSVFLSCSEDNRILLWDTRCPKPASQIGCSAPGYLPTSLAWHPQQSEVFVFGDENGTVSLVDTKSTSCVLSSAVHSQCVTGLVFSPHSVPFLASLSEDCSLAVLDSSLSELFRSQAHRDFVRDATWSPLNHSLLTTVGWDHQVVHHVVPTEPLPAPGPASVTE
Structure (SMILES),IC50 [1] [nM],EC50 [2] [nM],EC50 [3] [µM]
CS(=O)(=O)c1cccc(-c2cccc(OCC(O)CN3CCc4ccccc4C3)c2)c1 (centres undefined),101 to 1000,1000 to 10000,> 20
Cc1ccc(F)c(-c2cccc(OCC(O)CN3CCc4ccccc4C3)c2)c1 (centres undefined),101 to 1000,1000 to 10000,> 20
CN(CC(O)CN1CCc2ccccc2C1)c1cccc(CNC2CCOCC2)c1 (centres undefined),< 100,1000 to 10000,> 20
OC(COc1cccc(-c2cccnc2F)c1)CN1CCc2ccccc2C1 (centres undefined),101 to 1000,1000 to 10000,> 20
N#Cc1ccccc1-c1cccc(OCC(O)CN2CCc3ccccc3C2)c1 (centres undefined),101 to 1000,1000 to 10000,10 to 40
OC(COc1cccc(-c2ccccc2Cl)c1)CN1CCc2ccccc2C1 (centres undefined),101 to 1000,1000 to 10000,10 to 40
COC(=O)c1cccc(-c2cccc(OCC(O)CN3CCc4ccccc4C3)c2)c1 (centres undefined),101 to 1000,> 20000,> 20
COc1ccc(Cl)cc1-c1cccc(OCC(O)CN2CCc3ccccc3C2)c1 (centres undefined),101 to 1000,1000 to 10000,> 20
Cn1ccc2ccc(-c3cccc(OCC(O)CN4CCc5ccccc5C4)c3)cc21 (centres undefined),101 to 1000,1000 to 10000,10 to 40
OC(COc1cccc(-c2ccc(C(F)(F)F)cc2C(F)(F)F)c1)CN1CCc2ccccc2C1 (centres undefined),101 to 1000,10000 to 40000,> 20
CC1c2ccccc2CCN1CC(O)COc1cccc(-c2ccc3ncn(C)c3c2)c1 (centres undefined),101 to 1000,> 20000,1 to 10
CN1CCN(c2ccc(-c3cccc(OCC(O)CN4CCc5ccccc5C4)c3)cn2)CC1 (centres undefined),101 to 1000,1000 to 10000,1 to 10
CC(C)n1cnc2ccc(-c3cccc(OCC(O)CN4CCc5ccccc5C4)c3)cc21 (centres undefined),101 to 1000,101 to 1000,10 to 40
CN(C)c1ncc(-c2cccc(OCC(O)CN3CCc4ccccc4C3)c2)cn1 (centres undefined),101 to 1000,1000 to 10000,10 to 40
Cc1ccncc1-c1cccc(OCC(O)CN2CCc3ccccc3C2)c1 (centres undefined),101 to 10000,101 to 1000,10 to 40
Cn1cnc2ccc(-c3cccc(NCC(O)CN4CCc5ccccc5C4)n3)cc21 (centres undefined),101 to 1000,1000 to 10000,> 20
OC(COc1cccc(-c2cnc3ccccc3c2)c1)CN1CCc2ccccc2C1 (centres undefined),101 to 1000,1000 to 10000,10 to 40
OC(COc1cccc(-c2ccc3ncn(-c4ccccc4)c3c2)c1)CN1CCc2ccccc2C1 (centres undefined),101 to 1000,1000 to 10000,> 20
Cn1cnc2ccc(-c3ccnc(NCC(O)CN4CCc5ccccc5C4)c3)cc21 (centres undefined),< 100,101 to 1000,1 to 10
Cn1cnc2ccc(-c3cncc(NCC(O)CN4CCc5ccccc5C4)n3)cc21 (centres undefined),101 to 1000,101 to 1000,> 20
COc1ccc(-c2cccc(OCC(O)CN3CCc4ccccc4C3)c2)c(Cl)c1 (centres undefined),101 to 1000,1000 to 10000,10 to 40
OC(COc1cccc(-c2cccc3c2oc2ccccc23)c1)CN1CCc2ccccc2C1 (centres undefined),101 to 1000,1000 to 10000,10 to 40
OC(COc1cccc(-c2ccc3ncn(Cc4ccccc4)c3c2)c1)CN1CCc2ccccc2C1 (centres undefined),< 100,1000 to 10000,10 to 40
O=C(Nc1cccc(OCC(O)CN2CCc3ccccc3C2)c1)c1cnccn1 (centres undefined),101 to 1000,1000 to 10000,> 20
OC(COc1cccc(-c2ccc3nn[nH]c3c2)c1)CN1CCc2ccccc2C1 (centres undefined),101 to 1000,1000 to 10000,1 to 10
O=c1[nH]c2ccc(-c3cccc(OCC(O)CN4CCc5ccccc5C4)c3)cc2[nH]1 (centres undefined),101 to 1000,101 to 20000,10 to 20
CC(=O)c1cccc(-c2cccc(OCC(O)CN3CCc4ccccc4C3)c2)c1 (centres undefined),101 to 1000,1000 to 10000,10 to 40

Structure (SMILES),IC50 [1] [nM],EC50 [2] [nM],EC50 [3] [µM]
Cn1ncc2cc(-c3cccc(OCC(O)CN4CCc5ccccc5C4)c3)ccc21 (centres undefined),< 100,1000 to 10000,10 to 40
CS(=O)(=O)c1ccc(-c2cccc(OCC(O)CN3CCc4ccccc4C3)c2)cc1 (centres undefined),101 to 1000,1000 to 10000,10 to 40
Oc1cccc(-c2cccc(OCC(O)CN3CCc4ccccc4C3)c2)c1 (centres undefined),101 to 1000,1000 to 10000,10 to 40
CS(=O)(=O)Nc1ccc(-c2cccc(OCC(O)CN3CCc4ccccc4C3)c2)cc1 (centres undefined),101 to 1000,1000 to 10000,10 to 40
N#Cc1ccc(-c2cccc(OCC(O)CN3CCc4ccccc4C3)c2)cc1 (centres undefined),101 to 1000,1000 to 10000,10 to 40
O=C(c1cccc(-c2cccc(OCC(O)CN3CCc4ccccc4C3)c2)c1)N1CCOCC1 (centres undefined),101 to 1000,1000 to 10000,> 20
COc1ccc(Cn2cnc3ccc(-c4cccc(OCC(O)CN5CCc6ccccc6C5)c4)cc32)cc1 (centres undefined),101 to 1000,1000 to 10000,10 to 40
OC(COc1cccc(-c2ccccc2C(F)(F)F)c1)CN1CCc2ccccc2C1 (centres undefined),101 to 1000,1000 to 10000,> 20
OC(COc1cccc(-c2ccc(C(F)(F)F)cc2Cl)c1)CN1CCc2ccccc2C1 (centres undefined),101 to 1000,10000 to 40000,> 20
OC(COc1cccc(-c2ccc3nc[nH]c3c2)c1)CN1CCc2ccccc2C1 (centres undefined),101 to 1000,1000 to 10000,10 to 40
Cn1cnc2ccc(-c3ccnc(NCC(O)CN4CCc5ccccc5C4)n3)cc21 (centres undefined),101 to 1000,101 to 1000,1 to 10
Cn1cnc2ccc(-c3cccc(NCC(O)CN4CCc5ccccc5C4)c3)cc21 (centres undefined),< 100,101 to 1000,1 to 10
OC(COc1cccc(-c2ccc3ncn(C4CCOCC4)c3c2)c1)CN1CCc2ccccc2C1 (centres undefined),101 to 1000,101 to 1000,1 to 10
Cn1ccc2cnc(-c3cccc(OCC(O)CN4CCc5ccccc5C4)c3)nc21 (centres undefined),< 100,101 to 1000,> 20
Cn1ncc2ccc(-c3cc(COCC(O)CN4CCc5ccccc5C4)on3)cc21 (centres undefined),101 to 1000,1000 to 10000,> 20
COc1ccc(-c2cccc(OCC(O)CN3CCc4ccccc4C3)c2)cc1 (centres undefined),101 to 1000,1000 to 10000,10 to 40
OC(COc1cccc(-c2ccc3c(c2)OCCO3)c1)CN1CCc2ccccc2C1 (centres undefined),101 to 1000,1000 to 10000,10 to 40
OC(COc1cccc(-c2ccc3[nH]ncc3c2)c1)CN1CCc2ccccc2C1 (centres undefined),101 to 1000,1000 to 10000,> 20
COc1ccc(-c2cccc(OCC(O)CN3CCc4ccccc4C3)c2)c(C)c1 (centres undefined),101 to 1000,1000 to 10000,10 to 40
COc1cccc(-c2cccc(OCC(O)CN3CCc4ccccc4C3)c2)c1 (centres undefined),101 to 1000,1000 to 10000,10 to 40
OCc1cccc(-c2cccc(OCC(O)CN3CCc4ccccc4C3)c2)c1 (centres undefined),101 to 1000,1000 to 10000,10 to 40
O=C1NCc2ccc(-c3cccc(OCC(O)CN4CCc5ccccc5C4)c3)cc21 (centres undefined),101 to 1000,1000 to 10000,10 to 40
OC(COc1cccc(-c2cccc3cccnc23)c1)CN1CCc2ccccc2C1 (centres undefined),< 100,101 to 1000,10 to 40
CC(=O)c1ccc(-c2cccc(OCC(O)CN3CCc4ccccc4C3)c2)cc1 (centres undefined),101 to 1000,1000 to 10000,> 20
OC(COc1cccc(-c2cccc(F)c2F)c1)CN1CCc2ccccc2C1 (centres undefined),101 to 1000,10000 to 40000,10 to 40
CS(=O)(=O)c1ccccc1-c1cccc(OCC(O)CN2CCc3ccccc3C2)c1 (centres undefined),101 to 1000,1000 to 10000,> 20
